Drawing on the OPERA property sets (Mansouri et al. 2018), this text covers logP for 19 molecules.

A word on the logP: it is the decadic logarithm of the partition coefficient of the neutral form, usually between octanol and water. A higher logP goes with higher lipophilicity.

Molecules are shown by their SMILES.

With `CC(C)=NNP(=O)(N1CC1)N1CC1`, the logP was 0.45.

Turning to `COc1ccc(C=NNP(=O)(N2CC2)N2CC2)cc1`, the logP worked out at 0.42.

Take `O=P(N1CC1)(N1CC1)N(N=Cc1ccccc1)c1ccccc1`: the logP came out at 0.56.

`CN(N=Cc1ccc(F)cc1)P(=O)(N1CC1)N1CC1`: the logP is 0.48.

`O=[N+]([O-])c1ccc(N(N=Cc2ccccc2)P(=O)(N2CC2)N2CC2)cc1` registered a logP of 0.57.

In turn, `O=P(N1CC1)(N1CC1)N(N=Cc1ccc(F)cc1)c1ccccc1` had a logP of 0.56.

With `COc1ccc(C=NN(c2ccccc2)P(=O)(N2CC2)N2CC2)cc1`, the logP is 0.57.

In turn, `CC(C)=NN(C)P(=O)(N1CC1)N1CC1` had a logP of 0.51.

For `CN(N=Cc1ccccc1)P(=O)(N1CC1)N1CC1`, the logP was 0.51.

For the molecule `COc1ccc(C=NN(C)P(=O)(N2CC2)N2CC2)cc1`, the logP stood at 0.47.

Regarding `CC(C)=NN(c1ccccc1)P(=O)(N1CC1)N1CC1`, the logP stood at 0.57.

Molecule `O=P(N1CC1)(N1CC1)N(N=Cc1ccc(Cl)cc1)c1ccccc1` had a logP of 0.35.

Molecule `CN(N=Cc1ccc([N+](=O)[O-])cc1)P(=O)(N1CC1)N1CC1` displayed a logP of 0.51.

Molecule `O=[N+]([O-])c1ccc(C=NN(c2ccccc2)P(=O)(N2CC2)N2CC2)cc1` came in with a logP of 0.57.

For `CN(N=Cc1ccc(Br)cc1)P(=O)(N1CC1)N1CC1`, the logP is 0.31.

`O=[N+]([O-])c1ccc(C=NNP(=O)(N2CC2)N2CC2)cc1`: the logP was determined as 0.45.

For the molecule `O=P(NN=Cc1ccc(F)cc1)(N1CC1)N1CC1`, the logP turned out to be 0.45.

Turning to `O=P(NN=Cc1ccc(Cl)cc1)(N1CC1)N1CC1`, the logP worked out at 0.13.

With `O=P(NN=Cc1ccccc1)(N1CC1)N1CC1`, the logP is 0.48.
